From ChEMBL document CHEMBL1201862, “PubChem BioAssay data set” (2004)
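Assay format: 96-well plates, 48-hour exposure. GI50 marks 50% less growth.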 The source made the active and inactive calls. Rule as the data show it: active = GI50 up to about 1.1 µM and inactive = higher.

How the values were obtained:
Experiment in all cases: DTP human tumour cell line panel, 48 h
HT-29 = system: HT-29
NCI-H23 = system: NCI-H23
SW-620 = system: SW-620
KM12 = system: KM12
OVCAR-5 = system: OVCAR-5
HCT-116 = system: HCT-116
MDA-N = system: MDA-N
SN12C = system: SN12C
SK-OV-3 = system: SK-OV-3
MDA-MB-435 = system: MDA-MB-435
SK-MEL-28 = system: SK-MEL-28
SNB-19 = system: SNB-19
UO-31 = system: UO-31
DU-145 = system: DU-145
RXF 393 = system: RXF 393
T47D = system: T47D
U-251 = system: U-251
786-0 = system: 786-0
HCC 2998 = system: HCC 2998
NCI/ADR-RES = system: NCI/ADR-RES
BT-549 = system: BT-549
MDA-MB-231 = system: MDA-MB-231
UACC-257 = system: UACC-257
EKVX = system: EKVX
SK-MEL-5 = system: SK-MEL-5
LOX IMVI = system: LOX IMVI
CAKI-1 = system: CAKI-1
NCI-H522 = system: NCI-H522
MOLT-4 = system: MOLT-4
K562 = system: K562
SNB-75 = system: SNB-75
Malme-3M = system: Malme-3M
OVCAR-4 = system: OVCAR-4
MCF7 = system: MCF7
CCRF-CEM = system: CCRF-CEM
SF-268 = system: SF-268
HOP-62 = system: HOP-62
NCI-H226 = system: NCI-H226
SF-295 = system: SF-295
A498 = system: A498
SK-MEL-2 = system: SK-MEL-2
SF-539 = system: SF-539
UACC-62 = system: UACC-62
HOP-92 = system: HOP-92
TK-10 = system: TK-10
COLO 205 = system: COLO 205
PC-3 = system: PC-3
HCT-15 = system: HCT-15
RPMI-8226 = system: RPMI-8226
OVCAR-8 = system: OVCAR-8
OVCAR-3 = system: OVCAR-3
HL-60 = system: HL-60
A549 = system: A549
ACHN = system: ACHN
NCI-H460 = system: NCI-H460
M14 = system: M14
IGROV-1 = system: IGROV-1
SR = system: SR
Hs-578T = system: Hs-578T

CCCCCCCCCCCCCCCCCCNc1ccn(C2OC(COP(=O)(O)OCC3OC(n4cc(F)c(NCCCCCCCCCCCCCCCCCC)nc4=O)CC3O)C(O)C2O)c(=O)n1 (centres undefined)
GI50 (HT-29): > 100 µM (inactive)
GI50 (NCI-H23): > 100 µM (inactive)
GI50 (SW-620): > 100 µM (inactive)
GI50 (KM12): > 100 µM (inactive)
GI50 (OVCAR-5): > 100 µM (inactive)
GI50 (HCT-116): > 100 µM (inactive)
GI50 (MDA-N): > 100 µM (inactive)
GI50 (SN12C): > 100 µM (inactive)
GI50 (SK-OV-3): > 100 µM (inactive)
GI50 (MDA-MB-435): > 100 µM (inactive)
GI50 (SK-MEL-28): > 100 µM (inactive)
GI50 (SNB-19): 66.8 µM (inactive)
GI50 (UO-31): > 100 µM (inactive)
GI50 (DU-145): > 100 µM (inactive)
GI50 (RXF 393): > 100 µM (inactive)
GI50 (T47D): > 100 µM (inactive)
GI50 (U-251): 67 µM (inactive)
GI50 (786-0): > 100 µM (inactive)
GI50 (HCC 2998): 63.5 µM (inactive)
GI50 (NCI/ADR-RES): > 100 µM (inactive)
GI50 (BT-549): > 100 µM (inactive)
GI50 (MDA-MB-231): 78.9 µM (inactive)
GI50 (UACC-257): > 100 µM (inactive)
GI50 (EKVX): > 100 µM (inactive)
GI50 (SK-MEL-5): > 100 µM (inactive)
GI50 (LOX IMVI): > 100 µM (inactive)
GI50 (CAKI-1): > 100 µM (inactive)
GI50 (NCI-H522): 38.9 µM (inactive)
GI50 (MOLT-4): > 100 µM (inactive)
GI50 (K562): > 100 µM (inactive)
GI50 (SNB-75): > 100 µM (inactive)
GI50 (Malme-3M): 42.6 µM (inactive)
GI50 (OVCAR-4): > 100 µM (inactive)
GI50 (MCF7): > 100 µM (inactive)
GI50 (CCRF-CEM): > 100 µM (inactive)
GI50 (SF-268): > 100 µM (inactive)
GI50 (HOP-62): > 100 µM (inactive)
GI50 (NCI-H226): > 100 µM (inactive)
GI50 (SF-295): > 100 µM (inactive)
GI50 (A498): 25.8 µM (inactive)
GI50 (SK-MEL-2): > 100 µM (inactive)
GI50 (SF-539): > 100 µM (inactive)
GI50 (UACC-62): > 100 µM (inactive)
GI50 (HOP-92): 19.3 µM (inactive)
GI50 (TK-10): > 100 µM (inactive)
GI50 (COLO 205): > 100 µM (inactive)
GI50 (PC-3): 56.8 µM (inactive)
GI50 (HCT-15): > 100 µM
GI50 (RPMI-8226): 66.4 µM (inactive)
GI50 (OVCAR-8): 43.6 µM (inactive)
GI50 (OVCAR-3): > 100 µM (inactive)
GI50 (HL-60): > 100 µM (inactive)
GI50 (A549): 82.8 µM (inactive)
GI50 (ACHN): > 100 µM (inactive)
GI50 (NCI-H460): > 100 µM (inactive)
GI50 (M14): > 100 µM (inactive)
GI50 (IGROV-1): > 100 µM (inactive)
GI50 (SR): > 100 µM (inactive)
GI50 (Hs-578T): > 100 µM (inactive)
